Test results: patent publication US11191878B2, “Kits for local delivery of water soluble agents and methods of use” (priority 2017, dated 2021)

Legend:
myofibroblast formation = details: animal studies of capsular contracture with breast implants; cited from earlier work
fibrinolysis = assay: tranexamic acid concentrations effective against fibrinolysis; details: relative to doses used in the non-GLP acute porcine study
[1] = given preoperatively

Row | time to reach plasma concentrations [1] [min] | SMILES | myofibroblast formation (myofibroblast formation) | dose effective in reversing fibrinolysis (fibrinolysis)
1 |  | O=S(=O)([O-])CCS.[Na+] [MESNA, sodium 2-mercaptoethane sulfonate] | diminish myofibroblast formation | 
2 | 5 to 15 | NC[C@H]1CC[C@H](C(=O)O)CC1 [tranexamic acid] |  | one tenth of the doses used in the non-GLP acute porcine study
